Test [1] has as its target dopaminergic receptors D3 (Homo sapiens, UniProt P35462). Put plainly: Radioligand binding assay, dopaminergic D3 receptors. To be noted: test compound 1×10^−6 M. In outline: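 Scintillation read-out. Specific = total − nonspecific (excess cold ligand). Data as % of control specific binding / % inhibition; IC50 by Hill fit; Ki = IC50/(1+L/KD), KD from Scatchard plot.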

In test [2] the target is dopaminergic receptors D2 (Homo sapiens, UniProt P14416). Put plainly: Radioligand binding assay, dopaminergic D2 receptors. The conditions noted are these: binding assay, test compound 1×10^−6 M. In outline:
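Values derive from competition curves: percent inhibition of control specific binding was fitted by Hill non-linear regression for IC50, and Ki calculated with Cheng–Prusoff from radioligand concentration and KD (Scatchard). Bound ligand was detected by scintillation counting.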

The target of test [3] is T1, serotonin transporter (SERT) (Homo sapiens, UniProt P31645).
T1 construct: expressed in transfected cells; host or cells: CHO cells
Put plainly: Radioligand binding assay, serotonin transporter (SERT). To be noted: binding assay, test compound 1×10^−6 M. In outline: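 Values are derived from competition curves fitted by the Hill equation to give IC50, then converted to Ki by Cheng-Prusoff with radioligand Kd from Scatchard analysis. Specific binding equals total minus non-specific (excess cold ligand), counted by scintillation, and is also expressed as percent inhibition of control.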

Another test addresses T2, 5-HT2A receptor (Homo sapiens, UniProt P28223).
T2 construct: purchased PerkinElmer
The experiment in a line: Radioligand binding assay, serotoninergic 5-HT2A receptors. The conditions noted are these: binding assay result in %, Table 5a. In outline:
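Competition curves from scintillation-counted specific binding (total minus binding with excess unlabelled ligand) were Hill-fitted to give IC50, converted to Ki via Cheng-Prusoff using Scatchard-derived Kd.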

The target of test [4] is T3, 5-HT1A receptor (rat hippocampus) (Rattus norvegicus, UniProt P19327).
T3 construct: hippocampus; from tissue; host or cells: rat hippocampus
T3 sequence (P19327 1-422): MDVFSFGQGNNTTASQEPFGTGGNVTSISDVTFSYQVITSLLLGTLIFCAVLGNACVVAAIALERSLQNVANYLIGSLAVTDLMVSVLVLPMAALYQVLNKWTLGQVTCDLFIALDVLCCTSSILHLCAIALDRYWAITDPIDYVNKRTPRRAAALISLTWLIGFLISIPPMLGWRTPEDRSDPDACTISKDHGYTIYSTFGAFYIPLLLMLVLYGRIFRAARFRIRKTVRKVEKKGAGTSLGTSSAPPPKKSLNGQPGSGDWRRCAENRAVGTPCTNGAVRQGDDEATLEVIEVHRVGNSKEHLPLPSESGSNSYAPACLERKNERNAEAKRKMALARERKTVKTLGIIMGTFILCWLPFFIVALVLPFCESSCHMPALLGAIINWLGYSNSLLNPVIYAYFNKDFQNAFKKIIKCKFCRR
The experiment in a line: Radioligand binding assay, serotoninergic 5-HT1A receptors. To be noted: binding assay result in %, Table 5a.

In a further test the target is T4, 5-HT6 receptor (Homo sapiens, UniProt P50406).
T4 construct: purchased PerkinElmer
The experiment in a line: Radioligand binding assay, serotoninergic 5-HT6 receptors. The conditions noted are these: binding assay result in %, Table 5a. In outline: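 Values are Ki from Cheng–Prusoff, taking IC50 from Hill nonlinear regression of competition curves and KD from a Scatchard plot. Specific binding was total minus binding with excess unlabelled ligand. Radioligand displacement was detected by scintillation counting, and data were also reported as percent of control specific binding.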

Test [5] has as its system α1 adrenergic receptors (rat cerebral cortex). Put plainly: Radioligand binding assay, adrenergic α1 receptors. The conditions noted are these: test compound 1×10^−6 M. In outline: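 Values derive from radioligand displacement, with non-specific binding defined by excess cold ligand and detection by scintillation. Hill-fit IC50s were converted to Ki via Cheng-Prusoff using Scatchard-derived Kd; percent inhibition of control specific binding also reported.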

The target of the next test is T5, 5-HT7 receptor (Homo sapiens, UniProt P34969).
T5 construct: purchased PerkinElmer
The experiment in a line: Radioligand binding assay, serotoninergic 5-HT7 receptors. The conditions noted are these: binding assay result in %, Table 5a. In outline:
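Ki values used the Cheng–Prusoff equation, with KD from Scatchard analysis, applied to IC50 from Hill fits of human 5-HT7 radioligand competition curves. Bound radioligand was counted by scintillation, and excess unlabelled ligand set the non-specific binding.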

The record followed here is patent publication US20140135310A1, “SULPHONAMIDE DERIVATIVES OF ALICYCLIC AMINES FOR THE TREATMENT OF CENTRAL NERVOUS SYSTEM DISEASES” (Adamed Sp. z o.o., priority 2011, published 2014).

Molecules are shown by their SMILES.

T1 sequence (P31645 whole entry): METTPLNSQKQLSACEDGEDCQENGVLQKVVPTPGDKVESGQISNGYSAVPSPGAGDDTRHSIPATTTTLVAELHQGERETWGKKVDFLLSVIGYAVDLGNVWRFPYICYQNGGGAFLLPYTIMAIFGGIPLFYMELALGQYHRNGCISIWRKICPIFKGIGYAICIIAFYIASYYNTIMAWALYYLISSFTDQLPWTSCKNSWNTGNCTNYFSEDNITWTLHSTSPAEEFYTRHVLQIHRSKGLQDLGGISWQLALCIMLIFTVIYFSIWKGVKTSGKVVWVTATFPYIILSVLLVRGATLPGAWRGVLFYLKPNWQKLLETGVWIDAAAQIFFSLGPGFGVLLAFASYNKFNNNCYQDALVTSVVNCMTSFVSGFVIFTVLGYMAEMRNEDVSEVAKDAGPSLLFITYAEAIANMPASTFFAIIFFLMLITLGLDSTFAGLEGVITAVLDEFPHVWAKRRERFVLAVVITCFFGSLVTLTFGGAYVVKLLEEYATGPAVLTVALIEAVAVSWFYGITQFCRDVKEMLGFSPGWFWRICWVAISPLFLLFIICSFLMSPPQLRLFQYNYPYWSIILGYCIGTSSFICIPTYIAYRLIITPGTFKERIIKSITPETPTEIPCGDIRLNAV
T2 sequence (P28223 whole entry): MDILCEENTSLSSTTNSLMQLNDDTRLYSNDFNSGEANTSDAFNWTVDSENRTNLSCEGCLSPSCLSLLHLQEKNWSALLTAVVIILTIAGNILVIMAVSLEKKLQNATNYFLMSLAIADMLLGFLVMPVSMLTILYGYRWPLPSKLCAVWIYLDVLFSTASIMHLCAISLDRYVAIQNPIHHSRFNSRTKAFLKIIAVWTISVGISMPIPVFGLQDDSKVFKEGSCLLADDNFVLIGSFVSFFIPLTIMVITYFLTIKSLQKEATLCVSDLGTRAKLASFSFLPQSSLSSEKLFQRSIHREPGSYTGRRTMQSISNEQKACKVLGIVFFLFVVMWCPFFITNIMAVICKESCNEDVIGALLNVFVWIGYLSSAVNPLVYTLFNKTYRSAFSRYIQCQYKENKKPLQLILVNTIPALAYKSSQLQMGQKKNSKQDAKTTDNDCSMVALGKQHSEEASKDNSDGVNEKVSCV
T4 sequence (P50406 whole entry): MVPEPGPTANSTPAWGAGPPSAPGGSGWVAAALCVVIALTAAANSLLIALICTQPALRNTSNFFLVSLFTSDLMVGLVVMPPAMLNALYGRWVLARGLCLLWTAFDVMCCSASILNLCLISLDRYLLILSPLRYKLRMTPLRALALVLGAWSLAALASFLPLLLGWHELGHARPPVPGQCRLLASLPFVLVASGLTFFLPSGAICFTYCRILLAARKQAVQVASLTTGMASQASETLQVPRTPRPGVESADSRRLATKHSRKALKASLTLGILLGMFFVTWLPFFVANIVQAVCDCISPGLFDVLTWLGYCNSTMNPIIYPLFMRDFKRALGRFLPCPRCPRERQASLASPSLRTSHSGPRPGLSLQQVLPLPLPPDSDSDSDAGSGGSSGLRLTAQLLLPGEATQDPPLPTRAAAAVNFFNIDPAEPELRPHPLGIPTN
T5 sequence (P34969 whole entry): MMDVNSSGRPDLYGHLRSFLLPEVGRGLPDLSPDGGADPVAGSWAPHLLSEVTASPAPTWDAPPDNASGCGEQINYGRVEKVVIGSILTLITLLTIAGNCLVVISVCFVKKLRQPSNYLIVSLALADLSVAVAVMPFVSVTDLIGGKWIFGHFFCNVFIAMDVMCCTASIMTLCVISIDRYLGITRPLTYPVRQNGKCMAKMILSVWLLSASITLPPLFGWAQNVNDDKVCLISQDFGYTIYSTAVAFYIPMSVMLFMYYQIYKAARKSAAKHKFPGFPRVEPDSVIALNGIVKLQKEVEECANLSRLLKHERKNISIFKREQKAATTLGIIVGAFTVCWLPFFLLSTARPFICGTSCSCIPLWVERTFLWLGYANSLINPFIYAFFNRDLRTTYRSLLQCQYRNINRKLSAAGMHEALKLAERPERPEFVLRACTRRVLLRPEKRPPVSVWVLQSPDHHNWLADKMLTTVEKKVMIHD
dopaminergic receptors D2, sequence (P14416 whole entry): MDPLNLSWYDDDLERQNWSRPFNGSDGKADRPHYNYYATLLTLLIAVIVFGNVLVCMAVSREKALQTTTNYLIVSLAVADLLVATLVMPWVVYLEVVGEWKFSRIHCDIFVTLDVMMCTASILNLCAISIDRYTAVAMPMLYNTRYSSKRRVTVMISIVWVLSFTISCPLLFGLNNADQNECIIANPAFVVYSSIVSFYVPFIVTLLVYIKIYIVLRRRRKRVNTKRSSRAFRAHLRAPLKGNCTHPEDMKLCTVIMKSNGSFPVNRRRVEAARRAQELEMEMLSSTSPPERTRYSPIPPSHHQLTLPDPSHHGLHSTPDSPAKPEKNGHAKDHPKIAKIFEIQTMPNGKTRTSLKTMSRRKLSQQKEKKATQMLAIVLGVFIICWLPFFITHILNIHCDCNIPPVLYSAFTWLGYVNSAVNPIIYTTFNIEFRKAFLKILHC
dopaminergic receptors D3, sequence (P35462 whole entry): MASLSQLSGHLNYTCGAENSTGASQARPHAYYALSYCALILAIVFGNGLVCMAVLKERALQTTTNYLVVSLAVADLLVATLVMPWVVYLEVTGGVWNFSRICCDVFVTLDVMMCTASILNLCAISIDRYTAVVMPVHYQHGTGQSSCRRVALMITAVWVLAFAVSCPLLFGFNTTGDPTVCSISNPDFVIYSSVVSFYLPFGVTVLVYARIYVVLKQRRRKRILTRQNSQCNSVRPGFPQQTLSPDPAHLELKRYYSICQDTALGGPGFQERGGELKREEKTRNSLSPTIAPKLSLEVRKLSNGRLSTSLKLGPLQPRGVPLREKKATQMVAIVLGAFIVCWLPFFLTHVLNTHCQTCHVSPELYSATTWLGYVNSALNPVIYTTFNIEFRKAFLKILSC

For `O=S(=O)(NC1CN(CCOc2cccc3c2OCCO3)C1)c1cccc(Cl)c1` [Compound 91, 3-Chloro-N-[1-[2-(2,3-dihydro-1,4-benzodioxan-8-yloxy)ethyl]azetidin-3-yl]benzenesulphonamide], the “D3 [%]” value in test [1] is −8%. The “D2 [%]” value in test [2] came to 15%. In test [3], the “SERT [%]” value is −4%. Further, the “5-HT2A [%]” value on 5-HT2A receptor is 47%. Besides, the “5-HT1A [%]” value in test [4] was found to be 88%. For the same molecule, the “5-HT6 [%]” value on 5-HT6 receptor is −20%. In test [5], the “α1 [%]” value is given as −15%. Also, the “5-HT7 [%]” value on 5-HT7 receptor is reported as 91%.
Turning to `O=S(=O)(NC1CN(CCOc2cccc3c2OCCO3)C1)c1ccc2ccccc2c1` [Compound 95, N-[1-[2-(2,3-Dihydro-1,4-benzodioxan-8-yloxy)ethyl]azetidin-3-yl]naphthalene-2-sulphonamide], the “D3 [%]” value in test [1] was determined as 1%. The “D2 [%]” value in test [2] is 5%. Moreover, the “SERT [%]” value in test [3] is −4%. In addition, the “5-HT2A [%]” value on 5-HT2A receptor was found to be 0%. Besides, the “5-HT1A [%]” value in test [4] is 94%. Besides, the “5-HT6 [%]” value at 5-HT6 receptor is 9%. In test [5], the “α1 [%]” value is reported as −21%. Also, the “5-HT7 [%]” value at 5-HT7 receptor was 94%.
`O=S(=O)(NC1CCN(CCOc2cccc3c2OCCO3)C1)c1ccccc1` (stereo not drawn) [Compound 96, N-[1-[2-(2,3-Dihydro-1,4-benzodioxan-8-yloxy)ethyl]pyrrolidin-3-yl]-benzenesulphonamide]: in test [1], the “D3 [%]” value worked out at 56%. Besides, in test [2], the “D2 [%]” value was 46%. In addition, the “SERT [%]” value in test [3] turned out to be 11%. On 5-HT2A receptor, the “5-HT2A [%]” value was 93%. Also, in test [4], the “5-HT1A [%]” value is listed as 92%. In addition, the “5-HT6 [%]” value on 5-HT6 receptor is reported as 5%. Moreover, in test [5], the “α1 [%]” value was found to be 60%. On 5-HT7 receptor, the “5-HT7 [%]” value is listed as 98%.
With `Cc1cccc(S(=O)(=O)NC2CCN(CCOc3cccc4c3OCCO4)C2)c1` (stereo not drawn) [Compound 97, N-[1-[2-(2,3-Dihydro-1,4-benzodioxan-8-yloxy)ethyl]pyrrolidin-3-yl]-3-methylbenzenesulphonamide], in test [1], the “D3 [%]” value worked out at 40%. Also, the “D2 [%]” value in test [2] is reported as 29%. The “SERT [%]” value in test [3] is on record as −1%. For the same molecule, at 5-HT2A receptor, the “5-HT2A [%]” value stood at 89%. For the same molecule, the “5-HT1A [%]” value in test [4] came to 84%. The “5-HT6 [%]” value at 5-HT6 receptor is recorded as 43%. For the same molecule, the “α1 [%]” value in test [5] came out at 64%. For the same molecule, at 5-HT7 receptor, the “5-HT7 [%]” value stood at 105%.
As for `O=S(=O)(NC1CCN(CCOc2cccc3c2OCCO3)C1)c1cccc2ccccc12` (stereo not drawn) [Compound 98, N-[1-[2-(2,3-Dihydro-1,4-benzodioxan-8-yloxy)ethyl]pyrrolidin-3-yl]-naphthalene-1-sulphonamide], the “D3 [%]” value in test [1] came out at 67%. In addition, the “D2 [%]” value in test [2] was determined as 62%. In test [3], the “SERT [%]” value turned out to be 16%. At 5-HT2A receptor, the “5-HT2A [%]” value came to 87%. Besides, the “5-HT1A [%]” value in test [4] stood at 92%. Besides, on 5-HT6 receptor, the “5-HT6 [%]” value worked out at 32%. For the same molecule, the “α1 [%]” value in test [5] turned out to be 78%. Further, at 5-HT7 receptor, the “5-HT7 [%]” value was found to be 100%.
Take `O=S(=O)(NC1CCN(CCOc2cccc3c2OCCO3)C1)c1ccc2ccccc2c1` (stereo not drawn) [Compound 99, N-[1-[2-(2,3-Dihydro-1,4-benzodioxan-8-yloxy)ethyl]pyrrolidin-3-yl]-naphthalene-2-sulphonamide]: in test [1], the “D3 [%]” value is 78%. The “D2 [%]” value in test [2] was found to be 38%. Moreover, the “SERT [%]” value in test [3] is reported as 36%. Moreover, the “5-HT2A [%]” value at 5-HT2A receptor is 97%. In addition, the “5-HT1A [%]” value in test [4] is 96%. For the same molecule, on 5-HT6 receptor, the “5-HT6 [%]” value is listed as 64%. In addition, the “α1 [%]” value in test [5] came to 70%. For the same molecule, on 5-HT7 receptor, the “5-HT7 [%]” value stood at 90%.
On to `O=S(=O)(NC1CCN(CCOc2cccc3c2OCCO3)CC1)c1cccc2ccccc12` [Compound 100, N-[1-[2-(2,3-dihydro-1,4-benzodioxan-8-yloxy)ethyl]-4-piperidine]-naphthalene-1-sulphonamide], for which, in test [1], the “D3 [%]” value stood at 74%. The “D2 [%]” value in test [2] came out at 41%. Moreover, in test [3], the “SERT [%]” value is recorded as 57%. At 5-HT2A receptor, the “5-HT2A [%]” value is reported as 97%. For the same molecule, in test [4], the “5-HT1A [%]” value came out at 94%. For the same molecule, at 5-HT6 receptor, the “5-HT6 [%]” value was found to be 28%. For the same molecule, in test [5], the “α1 [%]” value stood at 87%. For the same molecule, the “5-HT7 [%]” value at 5-HT7 receptor was 103%.
For `CC1(C)Cc2cccc(OCCN3CCC(CNS(=O)(=O)c4cccc(O)c4)C3)c2O1` (stereo not drawn) [Compound 113, N-[[1-[2-[(2,2-Dimethyl-3H-benzofuran-7-yl)oxy]ethyl]pyrrolidin-3-yl]methyl]-3-hydroxy-benzenesulphonamide], the inhibition (as a rule, the relative decrease from the control value, in per cent) at 1 µM was 55% in test [1]; 47% in test [2]; 18% in test [3]; 65% at 5-HT2A receptor; 81% in test [4]; 52% at 5-HT6 receptor. This molecule also gave an inhibition at 1 µM on 5-HT7 receptor of 85%. Also, in test [5], the “α1 [%]” value is on record as 55%.
For `CC1(C)Cc2cccc(OCCN3CCC(CNS(=O)(=O)c4ccc5ccccc5c4)C3)c2O1` (stereo not drawn) [Compound 114, N-[[1-[2-[(2,2-Dimethyl-3H-benzofuran-7-yl)oxy]ethyl]pyrrolidin-3-yl]methyl]naphthalene-2-sulphonamide], the inhibition at 1 µM in test [1] was 62%; in test [2], 49%; in test [3], 5%; on 5-HT2A receptor, 90%; in test [4], 98%; on 5-HT6 receptor, 56%. Besides, the inhibition at 1 µM on 5-HT7 receptor is 97%. For the same molecule, the “α1 [%]” value in test [5] is on record as 27%.
Regarding `O=S(=O)(NC1CCN(CCOc2cccc3c2OCCO3)CC1)c1ccccc1` [Compound 117, N-[1-[2-(2,3-Dihydro-1,4-benzodioxan-8-yloxy)ethyl]-4-piperidine]-benzenesulphonamide], the “D3 [%]” value in test [1] was determined as 29%. Further, the “D2 [%]” value in test [2] turned out to be 24%. Besides, the “SERT [%]” value in test [3] was determined as 33%. Also, the “5-HT2A [%]” value on 5-HT2A receptor amounted to 86%. Also, in test [4], the “5-HT1A [%]” value amounted to 76%. Moreover, at 5-HT6 receptor, the “5-HT6 [%]” value is reported as 34%. In addition, the “α1 [%]” value in test [5] is reported as 53%. Also, the “5-HT7 [%]” value at 5-HT7 receptor was 93%.
Turning to `Cc1cccc(S(=O)(=O)NC2CCN(CCOc3cccc4c3OCCO4)CC2)c1` [Compound 118, N-[1-[2-(2,3-Dihydro-1,4-benzodioxan-8-yloxy)ethyl]-4-piperidine]-3-methyl-benzenesulphonamide], the “D3 [%]” value in test [1] was 20%. Also, the “D2 [%]” value in test [2] is 32%. Also, the “SERT [%]” value in test [3] was found to be 41%. For the same molecule, the “5-HT2A [%]” value at 5-HT2A receptor amounted to 83%. In addition, the “5-HT1A [%]” value in test [4] turned out to be 85%. On 5-HT6 receptor, the “5-HT6 [%]” value is on record as 51%. The “α1 [%]” value in test [5] was found to be 72%. Also, the “5-HT7 [%]” value at 5-HT7 receptor is given as 99%.
Turning to `O=S(=O)(NC1CCN(CCOc2cccc3ccccc23)CC1)c1cccc(O)c1` [Compound 119, 3-Hydroxy-N-[1-[2-(1-naphthyloxy)ethyl]-4-piperidine]benzene-sulphonamide], the “D3 [%]” value in test [1] is reported as 93%. In addition, the “D2 [%]” value in test [2] was 79%. In test [3], the “SERT [%]” value turned out to be 10%. Also, the “5-HT2A [%]” value on 5-HT2A receptor amounted to 69%. In test [4], the “5-HT1A [%]” value is 89%. Also, the “5-HT6 [%]” value at 5-HT6 receptor turned out to be 57%. Besides, in test [5], the “α1 [%]” value worked out at 78%. Besides, on 5-HT7 receptor, the “5-HT7 [%]” value was found to be 85%.
